From US20180162844A1, “CYCLOPROPANE DERIVATIVE AND DRUG CONTAINING SAME” (EA PHARMA CO., LTD., priority 2015, published 2018) come the findings set out here.

Broadly, the IC50 is the point on the concentration scale where inhibition reaches its midpoint.

T1 sequence (O75762 whole entry): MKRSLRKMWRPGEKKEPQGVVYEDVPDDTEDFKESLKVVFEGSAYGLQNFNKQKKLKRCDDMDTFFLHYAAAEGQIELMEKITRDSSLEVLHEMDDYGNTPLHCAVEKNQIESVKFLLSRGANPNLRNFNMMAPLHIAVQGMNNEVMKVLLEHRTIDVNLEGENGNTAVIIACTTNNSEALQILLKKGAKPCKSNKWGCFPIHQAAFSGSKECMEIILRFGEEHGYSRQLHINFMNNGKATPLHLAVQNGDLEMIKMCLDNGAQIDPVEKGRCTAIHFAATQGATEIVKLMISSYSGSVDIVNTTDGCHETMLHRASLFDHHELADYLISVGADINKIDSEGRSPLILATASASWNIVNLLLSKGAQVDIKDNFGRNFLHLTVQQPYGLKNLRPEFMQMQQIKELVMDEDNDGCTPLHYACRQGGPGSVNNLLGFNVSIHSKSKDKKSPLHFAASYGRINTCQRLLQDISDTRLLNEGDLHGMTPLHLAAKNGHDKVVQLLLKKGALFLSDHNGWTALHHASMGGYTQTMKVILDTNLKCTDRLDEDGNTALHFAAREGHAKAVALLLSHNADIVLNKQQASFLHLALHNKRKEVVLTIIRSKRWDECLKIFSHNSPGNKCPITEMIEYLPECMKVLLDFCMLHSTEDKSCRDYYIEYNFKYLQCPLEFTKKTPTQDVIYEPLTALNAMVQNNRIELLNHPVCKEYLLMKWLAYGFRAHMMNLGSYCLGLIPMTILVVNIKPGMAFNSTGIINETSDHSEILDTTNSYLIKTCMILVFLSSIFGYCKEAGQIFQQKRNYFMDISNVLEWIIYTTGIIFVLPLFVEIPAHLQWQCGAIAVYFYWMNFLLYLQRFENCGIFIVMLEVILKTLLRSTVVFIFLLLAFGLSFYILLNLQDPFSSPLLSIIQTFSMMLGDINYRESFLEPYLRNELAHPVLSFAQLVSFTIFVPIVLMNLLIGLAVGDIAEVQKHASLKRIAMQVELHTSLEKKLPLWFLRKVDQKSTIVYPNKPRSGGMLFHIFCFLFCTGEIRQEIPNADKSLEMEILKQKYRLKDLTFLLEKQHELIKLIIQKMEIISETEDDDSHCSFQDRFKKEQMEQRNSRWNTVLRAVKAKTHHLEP

The first experiment addresses T1, human TRPA1 (Homo sapiens, UniProt O75762).
T1 construct: full-length human TRPA1 gene was amplified; expressed in transfected cells; host or cells: Human embryonic kidney-derived 293T cells, transient transfection with pcDNA3.1/zeo(+) human TRPA1 expression plasmid
Put plainly: Measurement of TRPA1 antagonist activity (intracellular calcium increase, allylisothiocyanate stimulation, 293T cells transfected with human TRPA1 expression plasmid). It is filed as cell-based. The note with it: Comparative Examples (Table 8-2); 293T cells expressing human TRPA1, allylisothiocyanate stimulation, FLIPR Calcium4, test substance added 10 min before AITC; read-out: hTRPA1 IC50. As to the method: Experimental Example 1: Measurement of TRPA1 antagonist Activity
Human TRPA1 Expression Plasmid
Using cDNA encoding human TRPA1 (GenBank accession No. NM_007332) (manufactured by Kazusa DNA Research Institute, item No.: FHC07217) as a template, primer 1 (SEQ ID NO: 1) and primer 2 (SEQ ID NO: 2), PCR by PfuUltra High-Fidelity DNA Polymerase (Stratagene) was performed, and full-length human TRPA1 gene was amplified.
A recognition site (underlined) of restriction enzyme HindIII was added to the 5′ end of human TRPA1 gene, and XbaI site (underlined) was added to the 3′ end of human TRPA1 gene, and GTT of the template sequence was changed to termination codon TAG (bold). The obtained double stranded DNA was enzyme-digested with HindIII and XbaI, and introduced into a multicloning site of expression plasmid pcDNA3.1/zeo(+) (manufactured by Invitrogen) to give a human TRPA1 expression plasmid.
Human embryonic kidney-derived 293T cells were cultured in Dulbecco's Modified Eagle Medium containing 10% fetal bovine serum, 10 unit penicillin, and 10 μg streptomycin. One day before assay, 3×10^6 of 293T cells were plated on a petri dish having a diameter of 10 cm, and cultured in a CO2 incubator for 24 hr. OPTI-MEM I Reduced Serum Media (Invitrogen). (600 μL), Mirus TransIT-293 (Mirus Bio) (18 μL), and human TRPA1 expression plasmid (6 μg) were mixed, the total amount of the mixture was added to the cells on the petri dish to allow for gene transfer. The cells were recovered about for 8 hr later, plated on a poly-D-lysine coated 384 well black/clear bottom plate at 12,000 cells/well, and cultured overnight.
Measurement of Intracellular Calcium Increase
The medium was removed from the 384 well plate, calcium indicator (Molecular Device, trade name: FLIPR Calcium4 Assay Kit) dissolved in HBSS (Thermo Fisher Scientific) (pH 7.2) containing 20 mM HEPES was added (38 μL/well), and the cells were stained in a CO2 incubator for 1 hr. The 384 well plate was stood at room temperature for not less than 15 min, set on FDSS7000 (Hamamatsu Photonics K.K.), and a test substance solution was added at 10 μL/well. After 10 min, allylisothiocyanate solution (12 μL/well) was added, the relative fluorescence intensity was measured for 5 min after addition of the allylisothiocyanate solution.
Preparation of Test Substance Solution and Allylisothiocyanate Solution
A test substance solution was prepared to have a composition of HBSS (Thermo Fisher Scientific) (pH 7.2) containing 0.48% dimethyl sulfoxide, a test substance at 4.8-fold concentration of the evaluation concentration, 0.1% bovine serum albumin and 20 mM HEPES. An allylisothiocyanate solution was prepared to have a composition of HBSS (Thermo Fisher Scientific) (pH 7.2) containing 0.1% dimethyl sulfoxide, 100 μM allylisothiocyanate, 0.1% bovine serum albumin and 20 mM HEPES.
Calculation of Antagonist Activity
The activity rate of a test substance at each concentration was calculated, wherein the relative fluorescence intensity change of a well free of a test substance and containing allylisothiocyanate is 100% activity rate, and the relative fluorescence intensity change of a well free of a test substance and allylisothiocyanate is 0% activity rate. The inhibitory rate of a test substance at each concentration was calculated by subtracting the activity rate of the test substance from 100% activity rate, and the concentration of a test substance showing 50% inhibitory rate was calculated as IC50 from the sigmoid approximate curve by XLFit (idbs).
As for `CC(C)N(C1(C(=O)NCc2cc(-c3ccc(C(F)(F)F)nc3)ncn2)CC1)S(=O)(=O)c1ccc(F)cc1` [Comparative Example 1, 1-[(4-fluorophenyl)sulfonyl-isopropyl-amino]-N-[[6-[6-(trifluoromethyl)-3-pyridyl]pyrimidin-4-yl]methyl]cyclopropanecarboxamide, reference compound], the IC50 is 180 nM.

For the compound `O=C(NCc1cc(-c2ccc(C(F)(F)F)cc2)nc(N2CCCC2)c1)C1(NS(=O)(=O)c2ccc(Cl)s2)CC1` [Comparative Example 4, 1-[(5-chloro-2-thienyl)sulfonylamino]-N-[[2-pyrrolidin-1-yl-6-[4-(trifluoromethyl)phenyl]-4-pyridyl]methyl]cyclopropanecarboxamide, reference compound], the IC50 was greater than 1000 nM.

Regarding `O=C(NCc1cc(-c2ccc(C(F)(F)F)cc2)nc(N2CCCC2)c1)C1(NS(=O)(=O)c2ccc(F)cc2)CC1` [Comparative Example 2, 1-[(4-fluorophenyl)sulfonylamino]-N-[[2-pyrrolidin-1-yl-6-[4-(trifluoromethyl)phenyl]-4-pyridyl]methyl]cyclopropanecarboxamide, reference compound], the IC50 is greater than 1000 nM.

Still in this experiment, the particulars now being: Examples (Table 8-1); 293T cells expressing human TRPA1, allylisothiocyanate stimulation, FLIPR Calcium4, test substance added 10 min before AITC; read-out: hTRPA1 IC50.
On to `O=C(NCc1ccc(O)c(-c2ccc(C(F)(F)F)cn2)c1)C1(NS(=O)(=O)c2cc3cc(F)ccc3o2)CC1` [Example 18, 1-[(5-fluorobenzofuran-2-yl)sulfonylamino]-N-[[4-hydroxy-3-[5-(trifluoromethyl)-2-pyridyl]phenyl]methyl]-cyclopropanecarboxamide], for which the IC50 is 25 nM.

Regarding `O=C(NCc1cnnc(-c2ccc(C(F)(F)F)nc2)c1)C1(NS(=O)(=O)c2cc3cc(F)ccc3o2)CC1` [Example 16, 1-[(5-fluorobenzofuran-2-yl)sulfonylamino]-N-[[6-[6-(trifluoromethyl)-3-pyridyl]pyridazin-4-yl]methyl]cyclopropanecarboxamide], the IC50 is 990 nM.

As for `O=C(NCc1cc(-c2cnc(C(F)(F)F)nc2)ncn1)C1(NS(=O)(=O)c2cc3cc(F)ccc3o2)CC1` [Example 14, 1-[(5-fluorobenzofuran-2-yl)sulfonylamino]-N-[[6-[2-(trifluoromethyl)pyrimidin-5-yl]pyrimidin-4-yl]methyl]cyclopropanecarboxamide], the IC50 is 47 nM.

With `CN(C)c1nc(CNC(=O)C2(NS(=O)(=O)c3cc4cc(F)ccc4o3)CC2)cc(-c2ccc(C(F)(F)F)cc2)n1` [Example 19], the IC50 turned out to be 38 nM.

On to `O=C(NCc1ccnc(-c2cnc(C(F)(F)F)nc2)c1)C1(NS(=O)(=O)c2cc3cc(F)ccc3o2)CC1` [Example 2, 1-[(5-fluorobenzofuran-2-yl)sulfonylamino]-N-[[2-[2-(trifluoromethyl)pyrimidin-5-yl]-4-pyridyl]methyl]cyclopropane-carboxamide], for which the IC50 was found to be 120 nM.

On to `O=C(NCc1cc(-c2cnc(C(F)(F)F)nc2)ccn1)C1(NS(=O)(=O)c2cc3cc(F)ccc3o2)CC1` [Example 5, 1-[(5-fluorobenzofuran-2-yl)sulfonylamino]-N-[[4-[2-(trifluoromethyl)pyrimidin-5-yl]-2-pyridyl]methyl]cyclopropane-carboxamide], for which the IC50 came out at 260 nM.

With `O=C(NCc1ccnc(-c2ccc(C(F)(F)F)cc2O)c1)C1(NS(=O)(=O)c2cc3cc(F)ccc3o2)CC1` [Example 3, 1-[(5-fluorobenzofuran-2-yl)sulfonylamino]-N-[[2-[2-hydroxy-4-(trifluoromethyl)phenyl]-4-pyridyl]methyl]cyclopropane-carboxamide], the IC50 amounted to 72 nM.

For the compound `O=C(NCc1cnnc(-c2ccc(C(F)(F)F)cc2)c1)C1(NS(=O)(=O)c2cc3cc(F)ccc3o2)CC1` [Example 15, 1-[(5-fluorobenzofuran-2-yl)sulfonylamino]-N-[[6-[4-(trifluoromethyl)phenyl]pyridazin-4-yl]methyl]cyclopropanecarboxamide], the IC50 came to 310 nM.

As for `O=C(NCc1cc(-c2ncc(C(F)(F)F)cn2)ccn1)C1(NS(=O)(=O)c2cc3cc(F)ccc3o2)CC1` [Example 6, 1-[(5-fluorobenzofuran-2-yl)sulfonylamino]-N-[[4-[5-(trifluoromethyl)pyrimidin-2-yl]-2-pyridyl]methyl]cyclopropane-carboxamide], the IC50 worked out at 230 nM.

As for `O=C(NCc1cc(-c2ccc(C(F)(F)F)cc2)ncn1)C1(NS(=O)(=O)c2cc3ccccc3o2)CC1` [Example 21, 1-(benzofuran-2-ylsulfonylamino)-N-[[6-[4-(trifluoromethyl)phenyl]pyrimidin-4-yl]methyl]cyclopropanecarboxamide], the IC50 is 77 nM.
